# According to patent publication US20210300940A1 (Merck Patent GmbH, priority 2018, published 2021):
# pIC50: −log10 of the molar value.
# Assays:
# TLR7 = target: T1, TLR7 (Homo sapiens, UniProt Q9NYK1); experiment: HEK/293 TLR7 Cell Assay; assay type: cell-based; details: TLR7/NFKb HEK cells, R848 agonist 10 uM final concentration, Steady-Glo readout; read-out: TLR7 potency
# T1 construct: expressed in transfected cells; host or cells: HEK/293 cells carrying TLR7 and an NF-kB luciferase reporter
# T1 sequence (Q9NYK1 27-1049): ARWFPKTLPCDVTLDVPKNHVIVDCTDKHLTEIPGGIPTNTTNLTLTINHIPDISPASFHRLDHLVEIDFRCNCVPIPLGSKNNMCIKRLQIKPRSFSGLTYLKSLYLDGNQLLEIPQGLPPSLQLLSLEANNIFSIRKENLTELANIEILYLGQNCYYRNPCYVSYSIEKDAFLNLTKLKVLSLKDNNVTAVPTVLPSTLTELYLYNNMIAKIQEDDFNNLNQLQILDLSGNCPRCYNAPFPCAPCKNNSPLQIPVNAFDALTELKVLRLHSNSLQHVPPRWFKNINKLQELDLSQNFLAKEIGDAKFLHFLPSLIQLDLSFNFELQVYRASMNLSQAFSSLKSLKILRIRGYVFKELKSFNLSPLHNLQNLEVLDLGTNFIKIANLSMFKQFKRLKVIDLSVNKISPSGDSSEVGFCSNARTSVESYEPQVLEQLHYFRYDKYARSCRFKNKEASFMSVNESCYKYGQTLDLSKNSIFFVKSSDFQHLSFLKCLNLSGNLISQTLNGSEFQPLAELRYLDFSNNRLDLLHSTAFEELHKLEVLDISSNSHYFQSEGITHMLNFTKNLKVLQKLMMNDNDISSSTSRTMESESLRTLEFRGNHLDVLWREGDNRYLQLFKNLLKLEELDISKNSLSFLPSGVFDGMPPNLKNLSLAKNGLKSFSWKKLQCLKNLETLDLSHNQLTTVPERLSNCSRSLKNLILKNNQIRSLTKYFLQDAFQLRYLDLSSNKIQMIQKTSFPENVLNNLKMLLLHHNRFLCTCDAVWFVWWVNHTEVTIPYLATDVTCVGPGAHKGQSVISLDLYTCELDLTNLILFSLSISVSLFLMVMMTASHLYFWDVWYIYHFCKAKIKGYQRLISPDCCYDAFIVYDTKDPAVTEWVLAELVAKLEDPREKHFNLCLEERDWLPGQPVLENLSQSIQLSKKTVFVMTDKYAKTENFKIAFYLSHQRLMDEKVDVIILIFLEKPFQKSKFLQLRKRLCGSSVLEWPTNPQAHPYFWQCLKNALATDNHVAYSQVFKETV
# Procedure, shortened: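 TLR7/NF-κB reporter HEK293 cells, 5000/well, cultured 24 h, then preincubated 30 min with compound before R848 agonist (10 uM final). After 5 h stimulation, Steady-Glo luciferase luminescence read.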
# TLR8 = target: T2, TLR8 (Homo sapiens, UniProt Q9NR97); experiment: HEK/293 TLR8 Cell Assay; assay type: cell-based; details: HEK cells, R848 agonist 30 uM final concentration, Steady-Glo readout; read-out: TLR8 potency
# T2 construct: expressed in transfected cells; host or cells: HEK/293 reporter cells (NF-kB luciferase)
# T2 sequence (Q9NR97 27-1041): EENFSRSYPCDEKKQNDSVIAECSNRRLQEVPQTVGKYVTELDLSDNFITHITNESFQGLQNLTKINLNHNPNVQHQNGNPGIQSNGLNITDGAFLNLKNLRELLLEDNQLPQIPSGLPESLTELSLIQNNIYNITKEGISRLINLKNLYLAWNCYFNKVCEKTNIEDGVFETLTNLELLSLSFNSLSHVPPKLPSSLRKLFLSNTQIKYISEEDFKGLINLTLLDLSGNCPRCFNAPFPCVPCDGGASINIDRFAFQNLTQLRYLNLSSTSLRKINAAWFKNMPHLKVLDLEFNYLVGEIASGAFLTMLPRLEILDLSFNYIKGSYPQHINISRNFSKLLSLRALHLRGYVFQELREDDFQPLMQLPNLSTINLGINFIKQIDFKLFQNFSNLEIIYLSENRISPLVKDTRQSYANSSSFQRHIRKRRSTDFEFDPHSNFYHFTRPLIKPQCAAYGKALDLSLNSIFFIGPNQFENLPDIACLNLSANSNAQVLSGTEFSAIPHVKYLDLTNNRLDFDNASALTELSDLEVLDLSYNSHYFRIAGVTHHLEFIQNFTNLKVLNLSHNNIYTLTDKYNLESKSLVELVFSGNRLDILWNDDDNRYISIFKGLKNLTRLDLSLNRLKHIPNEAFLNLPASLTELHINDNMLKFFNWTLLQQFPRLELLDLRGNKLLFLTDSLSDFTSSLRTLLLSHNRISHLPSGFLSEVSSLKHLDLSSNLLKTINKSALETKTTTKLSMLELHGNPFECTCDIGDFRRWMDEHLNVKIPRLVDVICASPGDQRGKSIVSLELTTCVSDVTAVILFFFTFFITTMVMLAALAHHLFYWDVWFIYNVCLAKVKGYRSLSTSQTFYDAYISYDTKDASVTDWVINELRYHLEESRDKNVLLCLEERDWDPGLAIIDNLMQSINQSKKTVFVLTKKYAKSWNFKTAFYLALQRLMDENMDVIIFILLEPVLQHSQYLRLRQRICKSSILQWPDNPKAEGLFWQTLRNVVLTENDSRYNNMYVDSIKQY
pIC50 (TLR7),pIC50 (TLR8),SMILES
> 7.12,> 7.12,"Cc1ncc(N2C[C@H](NC(=O)C(F)C3CCNC3)C[C@H](C(F)(F)F)C2)c2cccnc12 (stereo partly drawn) [Example 137, 2-Fluoro-N-[(3R,5S)-1-(8-methyl-[1,7]naphthyridin-5-yl)-5-trifluoromethyl-piperidin-3-yl]-2-pyrrolidin-3-yl-acetamide]"
> 7.12,> 7.12,"N#Cc1ccc(N2C[C@H](NC(=O)CC3CCNCC3F)C[C@H](C(F)(F)F)C2)c2cccnc12 (stereo partly drawn) [Example 138, N-[(3R,5S)-1-(8-Cyano-quinolin-5-yl)-5-trifluoromethyl-piperidin-3-yl]-2-(3-fluoro-piperidin-4-yl)-acetamide]"
> 7.12,> 7.12,"C[C@H]1C[C@@H](NC(=O)NCCN(C)C)CN(c2ccc(C(F)(F)F)c3nccnc23)C1 [Example 141, 3-[2-(dimethylamino)ethyl]-1-[(3R,5S)-5-methyl-1-[8-(trifluoromethyl)quinoxalin-5-yl]piperidin-3-yl]urea]"
6.82 to 7.12,6.82 to 7.12,"CN(C)CCNC(=O)N[C@@H]1C[C@H](C(F)(F)F)CN(c2ccc(C(F)(F)F)c3nccnc23)C1 [Example 142, 3-[2-(dimethylamino)ethyl]-1-[(3R,5S)-5-(trifluoromethyl)-1-[8-(trifluoromethyl)quinoxalin-5-yl]piperidin-3-yl]urea]"
6.82 to 7.12,> 7.12,"CN(C)CCNC(=O)N[C@@H]1C[C@H](C(F)(F)F)CN(c2ccc(C(F)(F)F)c3ncccc23)C1 [Example 144, 3-[2-(dimethylamino)ethyl]-1-[(3R,5S)-5-(trifluoromethyl)-1-[8-(trifluoromethyl)quinolin-5-yl]piperidin-3-yl]urea]"
> 7.12,> 7.12,"Cc1c(F)cc(N2C[C@@H](C)C[C@@H](NC(=O)NCCN(C)C)C2)c2cccnc12 [Example 145, 3-[2-(dimethylamino)ethyl]-1-[(3R,5S)-1-(7-fluoro-8-methylquinolin-5-yl)-5-methylpiperidin-3-yl]urea]"
< 6.82,> 7.12,"C[C@H]1C[C@@H](NC(=O)N[C@@H]2CCCNC2)CN(c2ccc(C(F)(F)F)c3ncccc23)C1 [Example 146, 3-[(3R,5S)-5-methyl-1-[8-(trifluoromethyl)quinolin-5-yl]piperidin-3-yl]-1-[(3R)-piperidin-3-yl]urea]"
< 6.82,> 7.12,"C[C@H]1C[C@@H](NC(=O)NC2CCN(C)CC2)CN(c2ccc(C(F)(F)F)c3ncccc23)C1 [Example 147, 1-(1-Methyl-piperidin-4-yl)-3-[(3R,5S)-5-methyl-1-(8-trifluoromethyl-quinolin-5-yl)-piperidin-3-yl]-urea]"
6.82 to 7.12,> 7.12,"C[C@H]1C[C@@H](NC(=O)CC2CCN(CCO)CC2F)CN(c2cnc(C#N)c3ncccc23)C1 (stereo partly drawn) [Example 148, N-[(3R,5S)-1-(8-Cyano-[1,7]naphthyridin-5-yl)-5-methyl-piperidin-3-yl]-2-[3-fluoro-1-(2-hydroxy-ethyl)-piperidin-4-yl]-acetamide]"
< 6.82,6.82 to 7.12,"C[C@H]1C[C@@H](NC(=O)CC2CCN(C(=O)NC(C)(C)CO)CC2F)CN(c2cnc(C#N)c3ncccc23)C1 (stereo partly drawn) [Example 149, 4-{[(3R,5S)-1-(8-Cyano-[1,7]naphthyridin-5-yl)-5-methyl-piperidin-3-ylcarbamoyl]-methyl}-3-fluoro-piperidine-1-carboxylic acid (2-hydroxy-1,1-dimethyl-ethyl)-amide]"
> 7.12,> 7.12,"COc1ncc(N2C[C@@H](C)C[C@@H](N)C2)c2cccnc12 [Example 151, (3R,5S)-1-(8-Methoxy-[1,7]naphthyridin-5-yl)-5-methyl-piperidin-3-ylamine]"
< 6.82,> 7.12,"C[C@H]1C[C@@H](n2ccnc2)CN(c2ccc(C(F)(F)F)c3nccnc23)C1 [Example 157, 5-[(3R,5S)-3-(1H-imidazol-1-yl)-5-methylpiperidin-1-yl]-8-(trifluoromethyl)quinoxaline]"
< 6.82,> 7.12,"Cc1ccc(N2C[C@@H](C)C[C@@H](n3ccnc3)C2)c2cccnc12 [Example 159, 5-[(3R,5S)-3-(1H-imidazol-1-yl)-5-methylpiperidin-1-yl]-8-methylquinoline]"

SMILES,pIC50 (TLR7),pIC50 (TLR8)
"CN(C)CCNC(=O)N[C@@H]1C[C@H](C(F)(F)F)CN(c2ccc(C#N)c3nccnc23)C1 [Example 139, 1-[(3R,5S)-1-(8-cyanoquinoxalin-5-yl)-5-(trifluoromethyl)piperidin-3-yl]-3-[2-(dimethylamino)ethyl]urea]",6.82 to 7.12,6.82 to 7.12
"C[C@H]1C[C@@H](NC(=O)NCCN(C)C)CN(c2ccc(C#N)c3nccnc23)C1 [Example 140, 1-[(3R,5S)-1-(8-cyanoquinoxalin-5-yl)-5-methylpiperidin-3-yl]-3-[2-(dimethylamino)ethyl]urea]",> 7.12,> 7.12
"CN(C)CCNC(=O)N[C@@H]1C[C@H](C(F)(F)F)CN(c2ccc(C#N)c3ncccc23)C1 [Example 143, 1-[(3R,5S)-1-(8-cyanoquinolin-5-yl)-5-(trifluoromethyl)piperidin-3-yl]-3-[2-(dimethylamino)ethyl]urea]",> 7.12,6.82 to 7.12
"C[C@H]1C[C@@H](NC(=O)CN(CCN)CCO)CN(c2ccc(C#N)c3nccnc23)C1 [Example 150, 2-[(2-Amino-ethyl)-(2-hydroxy-ethyl)-amino]-N-[(3R,5S)-1-(8-cyano-quinoxalin-5-yl)-5-methyl-piperidin-3-yl]-acetamide]",> 7.12,> 7.12
"N#Cc1ccc(N2C[C@H](NCC3CCCNC3)C[C@H](C(F)(F)F)C2)c2cccnc12 (stereo partly drawn) [Example 152, 5-{(3R,5S)-3-[(Piperidin-3-ylmethyl)-amino]-5-trifluoromethyl-piperidin-1-yl}-quinoline-8-carbonitrile]",6.82 to 7.12,6.82 to 7.12
"C[C@H]1C[C@@H](n2ccnc2)CN(c2ccc(C#N)c3ncccc23)C1 [Example 158, 5-[(3R,5S)-3-(1H-imidazol-1-yl)-5-methylpiperidin-1-yl]quinoline-8-carbonitrile]",< 6.82,> 7.12
"C[C@H]1C[C@@H](NC(=O)[C@H](O)CO)CN(c2ccc(C#N)c3nccnc23)C1 [Example 160, (R)—N-[(3R,5S)-1-(8-Cyano-quinoxalin-5-yl)-5-methyl-piperidin-3-yl]-2,3-dihydroxy-propionamide]",> 7.12,> 7.12
"C[C@H]1C[C@@H](NC(=O)[C@@H](O)C(C)(C)O)CN(c2ccc(C#N)c3nccnc23)C1 [Example 161, (S)—N-[(3R,5S)-1-(8-Cyano-quinoxalin-5-yl)-5-methyl-piperidin-3-yl]-2,3-dihydroxy-3-methyl-butyramide]",> 7.12,> 7.12
